Results reported in PubChem BioAssay AID462 (Columbia University Molecular Screening Center, 2006).
Active and inactive are the calls of the source.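 How the source made its calls: active means activity score of at least 10, based on curve potency, or else summed standardized inhibition across doses; inactive means the rest.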

Test system: not listed separately
Test: inhibitors of NFkB p65 nuclear translocation, confirmation, imaging, HUVEC, TNFalpha stimulation, p65 immunofluorescence (AID 462)
Details: HUVEC TNFa-induced p65 nuclear translocation, imaging; at 8 µM (top of the series)

Structure (SMILES) | inhibition
CCOc1ccc(C2=Nn3c(nnc3-c3ccccc3OC)SC2)cc1 | 19.7%
COC(=O)c1ccc(N2C(=O)CC(N3CCN(C(=O)c4ccco4)CC3)C2=O)cc1 (configuration not stated) | 11.1% (inactive)
CCn1c(C(=O)N2CCCC(C(=O)O)C2)cc2sccc21 (configuration not stated) | 1.8% (inactive)
COc1ccc(OC)c(C2C(C#N)=C(N)Oc3cc(C)n(Cc4ccccn4)c(=O)c32)c1 (configuration not stated) | 4.2% (inactive)
CCCCOc1ccc(-c2nnn(CC(=O)Nc3ncc(CC(=O)OCC)s3)n2)cc1 | -1.5% (inactive)
COc1ccc(CNC(=O)COC(=O)c2n[nH]c3ccccc23)cc1OC | -3.8% (inactive)
O=C(NCCCN1CCCC1=O)C1CCN(S(=O)(=O)N2CCOCC2)CC1 | -10% (inactive)
COC(=O)CCC(NC(=O)c1cc(-c2ccc3c(c2)OCCO3)oc1C)C(=O)OC (configuration not stated) | -1.9% (inactive)
Cc1ccc(Cn2ncc3c(N4CCN(Cc5ccc(Cl)cc5)CC4)ncnc32)cc1 | -0.2% (inactive)
O=C(CSc1nnc2ncccn12)N1CCCCCC1 | -3.2% (inactive)
CCC1Oc2ccccc2N(CC(=O)Nc2ccc(OC)cc2OC)C1=O (configuration not stated) | -5% (inactive)
Cc1cc(C)n(CC2CC(=O)N(c3cc(Cl)cc(Cl)c3)C2=O)n1 (configuration not stated) | 6.8% (inactive)
O=C1[C@@H]2C(c3ccccc3Cl)=NO[C@@H]2C(=O)N1Cc1ccccc1 | 0% (inactive)
Cc1nc(N)[nH]c(=O)c1CCC(=O)OCC(C)C | 0% (inactive)
COc1ccc(-c2nc3c(c(SCC(=O)N4CCOCC4)n2)COC(C)(C)C3)cc1 | 1.1% (inactive)
CCn1c(CSc2ncccn2)nnc1SCC(=O)N1c2ccccc2CC1C (configuration not stated) | -6.1% (inactive)
CC1=CC2=C(OC1N(C)C)c1cccc3cccc(c13)C2=O (configuration not stated) | 5.4% (inactive)
O=C(COC(=O)c1ccccc1Oc1ccccc1)NC1CCS(=O)(=O)C1 (configuration not stated) | -1.2% (inactive)
CCOc1cc(C2C(C#N)=C(N)Oc3n[nH]c(CC)c32)ccc1OCCN1CCOCC1 (configuration not stated) | -2.3% (inactive)
Cc1cccc(N2CN=c3s/c(=C\c4ccncc4)c(=O)n3C2)c1 | -7.5% (inactive)
CN1CCN(c2oc(COc3ccc(-c4ccccc4)cc3)nc2C#N)CC1 | 2.4% (inactive)
COc1ccc(S(=O)(=O)N2CCCC2C(=O)Nc2ccc(C)cc2)cc1 (configuration not stated) | -0.4% (inactive)
COc1ccc(CC(=O)Nc2ccc(OC)c(NC(=O)c3ccco3)c2)cc1 | -6.4% (inactive)
COc1ccccc1CN1CC(C(=O)N2CCN(c3ccc(F)cc3)CC2)CC1=O (configuration not stated) | 1.4% (inactive)
Nn1c(SCC(=O)Nc2ccc(F)cc2)nnc1-c1cccnc1 | -0.4% (inactive)

Structure (SMILES) | inhibition
CC12C(=O)N(CCC(=O)O)C(=O)C1C1C=CC2C1 (configuration not stated) | -5.1% (inactive)
COc1ccc2c(c1)[nH]c1c(=O)n(CC3CCCO3)cnc12 (configuration not stated) | -2.7% (inactive)
O=C(C1CCC(N2C(=O)C3CC=CCC3C2=O)CC1)N1CCCCC1 (configuration not stated) | -2.3% (inactive)
Cc1cc(C(C)(C)C)c(O)c(C)c1CC1=NCCN1 | 7.9% (inactive)
CCOC(=O)CCNc1n[nH]c(=O)[nH]c1=O | 14.4% (inactive)
CN(C(=O)COc1cc(=O)n(C)c2ccccc12)c1ccc(Br)cc1 | 2.8% (inactive)
CCn1c(C(C#N)/C(=N\S(=O)(=O)c2cccs2)c2ccccc2)nc2ccccc21 (configuration not stated) | -1.6% (inactive)
COc1ccccc1CNC(=O)C1CCCN(S(=O)(=O)c2cnc[nH]2)C1 (configuration not stated) | -1.1% (inactive)
COc1ccc(/C(O)=C2/C(=O)C(=O)N(Cc3ccco3)C2c2cccs2)cc1 (configuration not stated) | 4.7% (inactive)
O=C(O)c1ccc(COCC(F)(F)C(F)F)o1 | 7.3% (inactive)
Cc1c(C2Nc3ccccc3NC3=C2C(=O)CC(C)(C)C3)cnn1C (configuration not stated) | 4.8% (inactive)
Cc1ccc(-n2c(=O)[nH]c3c(C(N)=O)nc(CC(C)C)nc32)cc1 | -5.2% (inactive)
CCOc1ccc(S(=O)(=O)N(C)C)cc1-c1nc2c(C(C)(C)C)nn(C)c2c(=O)[nH]1 | -7.2% (inactive)
COc1cc(C(O)c2nc3ccccc3n2C)cc(OC)c1OC (configuration not stated) | -5.7% (inactive)
O=C(CN(Cc1ccco1)C(=O)CNS(=O)(=O)c1ccc(Cl)cc1)NCc1ccc(F)cc1 | -0.8% (inactive)
Cc1nn(Cc2ccccc2)c(C)c1NC(=O)CCC(=O)O | -7.5% (inactive)
O=C(COc1ccc2ccccc2c1)N1CCN(C2CCN(Cc3ccccc3)CC2)CC1 | 3.5% (inactive)
Clc1ccc(-c2nnc3sc(-c4ccc(Br)o4)nn23)cc1 | 3.4% (inactive)
CCOC(=O)c1cc2c(=O)n3cccc(C)c3nc2n(CCc2ccccc2)c1=N | 17.3% (inactive)
N#Cc1c(N)n(CCOC(=O)c2ccc(Cl)cc2)c2nc3ccccc3nc12 | 6.7% (inactive)
COc1ccccc1-c1nnc2n1N=C(c1ccc(O)c(O)c1)CS2 | 23% (inactive)
CC1CCCCN1CCNC(=O)c1ccc2c(=O)n(CCc3ccccc3)c(=O)[nH]c2c1 (configuration not stated) | 4.4% (inactive)
CCN1C(=C2C(=O)c3ccccc3C2=O)C=Cc2ccccc21 | -5% (inactive)
CCOc1ccccc1C(=O)N1CCN(c2cccc(Cl)c2)CC1 | 18.5% (inactive)
CC(C)CCNC(=O)NC(=O)CSc1nnc(COc2ccccc2Cl)o1 | -7.1% (inactive)

Structure (SMILES) | inhibition
c1cncc(C2Nc3ccccc3-c3nc4ccccc4n32)c1 (configuration not stated) | -5% (inactive)
Nc1nc(C(=O)N2CCOCC2)nn1S(=O)(=O)c1ccc(Cl)cc1 | -1.1% (inactive)
COc1ccc(N(C)C(=O)CCS(=O)(=O)c2cccc3nonc23)cc1 | -0.8% (inactive)
CC(C)OC(=O)CSc1nnc(Cc2ccccc2)n1Cc1ccco1 | -1.5% (inactive)
COc1cc(C2C(C#N)=C(N)Oc3cc(N)ccc32)cc(OC)c1OC (configuration not stated) | 23.6% (inactive)
Cc1csc(SCCn2c(N3CCCC3)nc3c2c(=O)[nH]c(=O)n3C)n1 | -7.5% (inactive)
COc1cc(C)nc(OCCNC(=O)COc2ccc(Cl)cc2C)n1 | 0.4% (inactive)
COc1ccc(N2CCN(CCCNC(=O)C3CCCN(S(=O)(=O)c4cnc[nH]4)C3)CC2)cc1 (configuration not stated) | 3.2% (inactive)
COc1ccc(C(NC(=O)c2ccco2)c2ccc(OC)c(OC)c2)cc1 (configuration not stated) | -3.1% (inactive)
CC[C@]1(O)CC2CN(CCc3c([nH]c4ccccc34)[C@@](C(=O)OC)(c3cc4c(cc3OC)N(C=O)[C@H]3[C@@](O)(C(=O)OC)[C@H](OC(C)=O)[C@]5(CC)C=CCN6CC[C@]43[C@@H]65)C2)C1 (some centres not stated) | 17.2%
CC(C)CNS(=O)(=O)c1ccc(CCC(=O)NCc2ccco2)cc1 | -5.6% (inactive)
Cn1c(C(=O)NCCC2=CCCCC2)cc2c(=O)n3ccccc3nc21 | -8% (inactive)
COc1cc([C@@H]2c3cc4c(cc3[C@H](O)[C@H]3COC(=O)[C@H]23)OCO4)cc(OC)c1OC | 26.3%
Cc1nc(NC2=NCN(CCc3ccccc3)CN2)nc2c(C)cccc12 | 1% (inactive)
COc1ccc(OC)c(NS(=O)(=O)c2ccc(N3CCCC3=O)cc2)c1 | 15.5% (inactive)
COc1ccc(OCC(=O)OCCN(C)C)cc1 | 6.8% (inactive)
CCC(NC(=O)Nc1nnc(C(F)(F)F)s1)(C(F)(F)F)C(F)(F)F | -22.3% (inactive)
Cc1ccccc1CN1CCNC1=O | -8% (inactive)
COC(=O)CCC(=O)Nc1cccc(Cl)c1 | -0.6% (inactive)
O=C(Nc1ccc2oc(-c3ccncc3)nc2c1)c1cccs1 | 0.6% (inactive)
O=C(CSc1nnc(SCc2ccc(Cl)cc2)s1)N1CCN(C(=O)c2ccco2)CC1 | 5.9% (inactive)
COc1ccc(-n2c(Cc3cccn3C)nnc2SCC(=O)Nc2cccc(Cl)c2)cc1 | 3.9% (inactive)
Cn1c(=O)c2c(nc(CN3CCOCC3)n2CC(O)CO)n(C)c1=O (configuration not stated) | 3.2% (inactive)
COc1cccc(N2CCN(c3ncnc4c3[nH]c3ccccc34)CC2C)c1 (configuration not stated) | 66.1%

Test system: HUVEC TNFa-induced p65 nuclear translocation, imaging
Test: as above
Details: not given

Structure (SMILES) | IC50 [µM]
C[C@H]1CCC/C=C/C2C[C@H](O)CC2[C@H](O)/C=C/C(=O)O1 (some centres not stated) | 0.04
O=S1(=O)Nc2c(ccc3cccnc23)-c2ccccc21 | 2.07
C=CS(=O)(=O)c1ccc(Oc2ccc(S(=O)(=O)C=C)cc2)cc1 | 1.46
